Like-named read-outs stand apart in the source and are kept apart here.
How the values were obtained:
[1] = Curcuminoids in murine tumor, brain and liver after PHRAD 129; settings: for signal in murine tumor extract: oral PHRAD 129, 100 mg/kg daily
Experimental: Murine soft tissues. Mouse liver, brain, and tumor samples were collected from animals that had been administered a proprietary turmeric formulation (PHRAD 129, Aveta Biomics, Bedford, Mass.). After dissection, the tissues were weighed, frozen and stored at −80° C.
The samples were homogenized in a bead mill (thrice for 10 seconds each time at RT). The homogenate was vigorously mixed (5 min, RT), centrifuged (16,000 g, 5 min at RT), and the supernatant was transferred to microcentrifuge tubes and dried in a vacuum centrifuge. The dried samples were tightly capped and stored at −80° C.

[2] = in vivo
Experimental: (§1) Biological samples: Human plasma. […] The tubes were centrifuged (1000 g, 15 min), and plasma was collected and stored at −80° C.
(§2) Extraction of human plasma samples and BF2 complex formation: Plasma samples were prepared in duplicate by transferring aliquots of human plasma (100 uL) to 1.5 mL microcentrifuge tubes. The internal standards (1 pmol d6C and 5 pmol d6TC in 10 uL of methanol) were added to each sample. They were briefly vortexed, then treated with cold 10 mM acetic acid in methanol (1 mL). After rigorous mixing, incubation (4° C., 60 min) and centrifugation (16,000 g, Rt, 5 min) supernatants were transferred to clean microcentrifuge tubes and dried in a vacuum centrifuge. The dried samples were tightly capped and stored in −80° C.
(§3) Analysis of the blood collected at 0, 1, 2, 3, 4, and 5 hours after compound ingestion on Day 1 and 0, 1, 2, 3, and 4 hours on Day 17 was performed.

[3] = BF2-curcuminoid complex stability (hydrolysis, autosampler); format: physicochemical
Experimental: Complex stability: The BF2-curcumin complexes slowly hydrolyze in water and water/methanol mixtures with a half-life of a few hours at 4° C. For applicability to an LC/MS assay on biological samples containing amounts of curcuminoids as low as 50 fmol/sample, and using an aqueous chromatographic mobile phase, it was necessary to use conditions that minimized hydrolysis. This breakdown was slowed but not averted by storing the samples at even lower temperatures (−80° C.) prior to analysis. The breakdown of the derivatives was averted by performing the reaction in glacial acetic acid and directly injecting the reaction mixture onto the LC column. Even after the injection of hundreds of samples there has been no noticeable deterioration of chromatographic reliability. Furthermore, by using a short 10 minute chromatographic gradient the hydrolysis of the complexes during chromatography was minimized. The stability of BF2-curcuminoid complex was tested to validate the assay for overnight analysis. Eight QC-mid samples were prepared, stored tightly capped to minimize contact with atmospheric moisture in the autosampler at 20° C., and each sample was analyzed every hour for up to seven hours. Except for BF2-TC, the curcuminoid complexes were stable throughout the 7 hour test period with no significant decline in peak intensity (FIG. 4).

[4] = In vivo temporal profile of plasma curcuminoids and metabolites in a human volunteer; settings: Longvida four tablets daily for 17 consecutive days
Experimental: as §1, §2, §3

With `O=C(C=Cc1ccc(O)cc1)CC(=O)C=Cc1ccc(O[C@@H]2O[C@H](C(=O)O)[C@@H](O)[C@H](O)[C@H]2O)cc1` [BDMCG, bisdemethoxycurcumin glucuronide] the “signal in mouse brain extract” value ([1]; mouse, in vivo) was “not detected”, the “signal in mouse liver extract” value ([1]; mouse, in vivo) was “not detected” and the “signal in human plasma extract” value [2] was “intense peaks”.
In the case of `COc1cc(C=CC2=CC(C=Cc3ccc(O)c(OC)c3)=[O+][B-](F)(F)O2)ccc1O` [BF2-C], the hydrolysis half-life ([3]; water and water/methanol mixtures, 4° C.) is reported as “a few hours”.
For `COc1cc(CCC2=CC(CCc3ccc(O)c(OC)c3)=[O+][B-](F)(F)O2)ccc1O` [BF2-TC], the “stability in autosampler (peak intensity)” value ([3]; glacial acetic acid reaction mixture, 20° C., 7 hour test period, QC-mid) was “slight loss of signal intensity”.
With `COc1cc(/C=C/C(=O)CC(=O)/C=C/c2ccc(O)c(OC)c2)ccc1O` [Curcumin, curcumin] the “signal in mouse brain extract” value ([1]; mouse, in vivo) was “measurable peaks”.
With Demethoxycurcumin the “signal in mouse brain extract” value ([1]; after PHRAD 129) was “measurable peaks”, the “signal in mouse liver extract” value ([1]; after PHRAD 129) was “measurable peaks” and the “signal in murine tumor extract” value [1] was “strong signals”.
For bisdemethoxycurcumin, the “signal in mouse liver extract” value ([1]; after PHRAD 129) was “measurable peaks” and the “signal in murine tumor extract” value [1] was “strong signals”.
In the case of demethoxycurcumin glucuronide [DMCG], the “signal in mouse brain extract” value ([1]; after PHRAD 129) is reported as “not detected”, the “signal in mouse liver extract” value ([1]; after PHRAD 129) is reported as “not detected” and the “signal in murine tumor extract” value [1] is reported as “not detected”. The “signal in human plasma extract” value [4] was “intense peaks”.
With tetrahydrocurcumin the “signal in murine tumor extract” value [1] was “strong signals”.

From patent publication US20220178936A1, “A SENSITIVE LC-MS ASSAY TO MEASURE CURCUMINOIDS IN COMPLEX BIOLOGICAL SAMPLES” (THE REGENTS OF THE UNIVERSITY OF CALIFORNIA, priority 2019, published 2022)
